# ChEMBL document CHEMBL4184305, “Inhibition of histone lysine methyltransferases G9a and GLP by ejection of structural Zn(II)” (Bioorg Med Chem Lett, 2018)
# Calls of active or inactive are those of the source. No cut-off for these calls is given here.
# Columns and labels:
# [1] = target: T1, Histone-lysine N-methyltransferase EHMT2 (Homo sapiens) (UniProt Q96KQ7); test: Inhibition of wild type recombinant human histone lysine methyltransferase G9a (913 to 1193 residues) expressed in Escherichia coli Rosetta BL21 DE3 PlysS assessed as zinc ions ejection from Cys4-Zn finger at >50 uM after 1 hr by circular dichroism analysis
# T1 sequence (whole entry): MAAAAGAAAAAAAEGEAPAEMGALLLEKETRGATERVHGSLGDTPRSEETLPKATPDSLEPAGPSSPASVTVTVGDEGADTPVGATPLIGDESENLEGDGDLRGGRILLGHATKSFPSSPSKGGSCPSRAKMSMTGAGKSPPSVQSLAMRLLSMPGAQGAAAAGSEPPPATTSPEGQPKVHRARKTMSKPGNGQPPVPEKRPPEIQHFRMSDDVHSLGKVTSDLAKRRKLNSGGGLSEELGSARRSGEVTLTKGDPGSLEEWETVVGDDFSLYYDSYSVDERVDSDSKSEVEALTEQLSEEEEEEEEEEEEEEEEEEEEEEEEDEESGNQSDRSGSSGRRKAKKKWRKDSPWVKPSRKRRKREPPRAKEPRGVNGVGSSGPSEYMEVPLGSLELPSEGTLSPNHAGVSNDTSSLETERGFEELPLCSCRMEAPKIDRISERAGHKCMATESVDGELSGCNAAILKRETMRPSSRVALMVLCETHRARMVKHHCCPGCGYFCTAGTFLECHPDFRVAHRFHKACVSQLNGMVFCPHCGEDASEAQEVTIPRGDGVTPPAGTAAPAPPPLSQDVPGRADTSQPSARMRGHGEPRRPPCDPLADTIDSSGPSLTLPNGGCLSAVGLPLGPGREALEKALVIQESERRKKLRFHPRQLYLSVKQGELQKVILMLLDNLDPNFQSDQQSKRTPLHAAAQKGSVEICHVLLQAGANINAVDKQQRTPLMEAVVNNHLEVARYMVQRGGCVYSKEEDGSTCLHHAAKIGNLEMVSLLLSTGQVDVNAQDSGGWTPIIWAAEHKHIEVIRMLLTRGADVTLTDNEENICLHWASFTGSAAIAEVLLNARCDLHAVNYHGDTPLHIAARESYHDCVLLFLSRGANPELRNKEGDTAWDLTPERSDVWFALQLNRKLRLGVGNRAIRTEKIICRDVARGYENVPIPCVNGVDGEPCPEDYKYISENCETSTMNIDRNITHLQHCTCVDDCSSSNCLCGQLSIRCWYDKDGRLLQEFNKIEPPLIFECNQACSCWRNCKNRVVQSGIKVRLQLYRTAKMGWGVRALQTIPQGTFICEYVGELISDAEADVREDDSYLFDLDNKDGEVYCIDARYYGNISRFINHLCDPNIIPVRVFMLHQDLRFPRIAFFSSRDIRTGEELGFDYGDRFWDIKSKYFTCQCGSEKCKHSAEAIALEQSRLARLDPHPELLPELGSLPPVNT
# [2] = target: T2, Histone-lysine N-methyltransferase EHMT1 (Homo sapiens) (UniProt Q9H9B1); test: Inhibition of wild type recombinant human histone lysine methyltransferase GLP (951 to 1235 residues) expressed in Escherichia coli Rosetta BL21 DE3 PlysS assessed as zinc ions ejection from Cys4-Zn finger at >50 uM after 1 hr by circular dichroism analysis
# T2 sequence (whole entry): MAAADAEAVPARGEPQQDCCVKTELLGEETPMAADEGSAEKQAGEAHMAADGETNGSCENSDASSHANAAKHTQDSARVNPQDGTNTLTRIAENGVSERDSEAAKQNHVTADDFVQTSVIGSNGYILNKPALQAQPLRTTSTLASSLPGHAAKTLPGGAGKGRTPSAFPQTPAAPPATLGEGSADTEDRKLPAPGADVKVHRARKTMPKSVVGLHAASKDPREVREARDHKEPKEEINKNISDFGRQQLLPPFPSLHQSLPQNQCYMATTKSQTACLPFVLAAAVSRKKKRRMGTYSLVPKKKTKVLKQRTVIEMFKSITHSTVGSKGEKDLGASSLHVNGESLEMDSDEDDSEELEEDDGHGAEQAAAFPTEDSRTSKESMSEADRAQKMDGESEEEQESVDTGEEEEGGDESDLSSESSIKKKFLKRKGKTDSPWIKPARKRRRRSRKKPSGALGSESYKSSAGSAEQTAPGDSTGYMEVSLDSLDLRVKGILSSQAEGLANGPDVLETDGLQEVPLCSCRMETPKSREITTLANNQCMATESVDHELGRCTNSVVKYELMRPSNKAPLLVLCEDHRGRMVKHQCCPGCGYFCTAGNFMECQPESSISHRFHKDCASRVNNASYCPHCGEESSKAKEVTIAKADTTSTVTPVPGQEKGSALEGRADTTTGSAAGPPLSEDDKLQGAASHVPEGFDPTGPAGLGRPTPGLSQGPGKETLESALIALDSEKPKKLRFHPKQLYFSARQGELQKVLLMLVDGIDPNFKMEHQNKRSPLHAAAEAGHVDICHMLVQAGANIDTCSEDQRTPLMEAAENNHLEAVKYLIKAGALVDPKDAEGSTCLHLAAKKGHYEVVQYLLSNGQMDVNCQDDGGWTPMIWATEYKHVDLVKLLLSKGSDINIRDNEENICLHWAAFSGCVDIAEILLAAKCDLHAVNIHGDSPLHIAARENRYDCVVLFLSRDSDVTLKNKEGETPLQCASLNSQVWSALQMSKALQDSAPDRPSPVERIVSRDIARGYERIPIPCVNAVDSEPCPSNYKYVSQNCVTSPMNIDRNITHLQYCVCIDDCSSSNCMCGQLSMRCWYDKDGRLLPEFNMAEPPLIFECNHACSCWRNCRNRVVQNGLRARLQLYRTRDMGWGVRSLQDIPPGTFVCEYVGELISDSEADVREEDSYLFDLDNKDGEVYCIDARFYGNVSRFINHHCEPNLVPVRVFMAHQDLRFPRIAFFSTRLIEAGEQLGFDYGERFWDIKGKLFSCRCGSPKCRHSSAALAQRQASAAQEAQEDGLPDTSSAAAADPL
# [3] = target: T1, Histone-lysine N-methyltransferase EHMT2 (Homo sapiens); test: Inhibition of wild type recombinant human histone lysine methyltransferase G9a (913 to 1193 residues) expressed in Escherichia coli Rosetta BL21 DE3 PlysS assessed as zinc ions ejection from 3 types of Cys9-type Zn fingers at >50 uM after 1 hr by circular dichroism analysis
# [4] = target: T2, Histone-lysine N-methyltransferase EHMT1 (Homo sapiens); test: Inhibition of wild type recombinant human histone lysine methyltransferase GLP (951 to 1235 residues) expressed in Escherichia coli Rosetta BL21 DE3 PlysS assessed as zinc ions ejection from 3 types of Cys9-type Zn fingers at >50 uM after 1 hr by circular dichroism analysis
# [5] = target: T1, Histone-lysine N-methyltransferase EHMT2 (Homo sapiens); test: Inhibition of wild type recombinant human histone lysine methyltransferase G9a (913 to 1193 residues) expressed in Escherichia coli Rosetta BL21 DE3 PlysS assessed as zinc ions ejection from Cys4-Zn finger at >25 uM after 1 hr by circular dichroism analysis
SMILES,inhibition [1],inhibition [2],inhibition [3],inhibition [4],inhibition [5]
CCN(CC)C(=S)SSC(=S)N(CC)CC,Active,Active,Active,Active,–
O=c1c2ccccc2[se]n1-c1ccccc1 [EBSELEN],–,–,–,–,Active
